Experimental data taken from ChEMBL document CHEMBL1201862, “PubChem BioAssay data set” (2004).
Values belong to the compound of their own block, whether it stands above or below them. Calls of active or inactive are those of the source.

Assays:
Escherichia coli [1] = assay: microbe, parasite or virus in culture
Escherichia coli [2] = assay: microbe, parasite or virus in culture; remark: listed apart in the source
[3] = MIN6 cell viability loss – mouse insulinoma, cytotoxicity control, dose response (AID 2122); type: functional;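 also: confirmatory high-throughput counterscreen run to flag cytotoxic compounds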
INS1 = assay: INS-1E survival protection against cytokine death – cell-based, luminescence, retest, dose response (AID 449756); type: functional; conditions: Rattus norvegicus;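 also: cell death triggered by IL-1 beta plus TNF-alpha plus IFN-gamma mixture; protective hits raise ATP signal compared with cytokine alone wells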
[4] = non-specific 3'UTR reporter inhibition in Clone20-Shn3RL – cell-based, Renilla luciferase, cherry-picked, counter-screen for Shn3 inhibitor project, dose response (AID 624133); type: functional
[5] = HEK-293T viability loss after treatment – luminescence, T-cell screen hits, cytotoxicity control for TCR NF-kB inhibitor project, dose response (AID 489026); type: functional, cell-based;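 also: cells exposed to compound about 14 hours before the viability readout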
[6] = loss of viability in HepG2 cells – cell-based, CellTiter-Glo, cherry-picked, cytotoxicity control for Shn3 inhibitor project, dose response (AID 624134); type: functional
[7] = decrease of insulin promoter-GFP reporter – imaging, high-content screening, mouse beta cells (AID 1628); type: functional; conditions: MIN6
[8] = target: T1, COUP transcription factor 2 (Homo sapiens, UniProt P24468); assay: Luminescence-based cell-based high throughput dose response assay to identify inhibitors of COUP-TFII (NR2F2).; type: functional;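 also: HEK293 cells transiently cotransfected with COUP-TFII expression vector and reporter; luciferase reporter luminescence driven by COUP-TFII from the pX2-168 reporter plasmid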
T1 sequence (P24468 whole entry): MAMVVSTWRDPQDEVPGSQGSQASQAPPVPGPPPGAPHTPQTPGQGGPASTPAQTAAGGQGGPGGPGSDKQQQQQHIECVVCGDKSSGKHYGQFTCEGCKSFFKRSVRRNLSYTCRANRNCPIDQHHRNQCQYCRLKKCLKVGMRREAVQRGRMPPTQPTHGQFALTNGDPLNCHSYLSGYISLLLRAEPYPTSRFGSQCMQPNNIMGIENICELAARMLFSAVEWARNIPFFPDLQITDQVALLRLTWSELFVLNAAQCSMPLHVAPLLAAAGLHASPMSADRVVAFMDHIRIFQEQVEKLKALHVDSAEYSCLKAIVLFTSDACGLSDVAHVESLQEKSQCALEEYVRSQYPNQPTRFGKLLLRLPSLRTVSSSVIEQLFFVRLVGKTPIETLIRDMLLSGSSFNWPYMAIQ

[9] = reduction of Shn3 3'UTR-driven luciferase in osteoblasts – cell-based, Clone20 osteoblasts, firefly luciferase, cherry-picked, dose response (AID 624132); type: functional;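 also: firefly luciferase luminescence from reporter carrying the Shn3 3'UTR in osteoblasts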
[10] = target: T2, Tyrosine-protein phosphatase non-receptor type 22 (Homo sapiens, UniProt Q9Y2R2); type: functional
T2 sequence (Q9Y2R2 whole entry): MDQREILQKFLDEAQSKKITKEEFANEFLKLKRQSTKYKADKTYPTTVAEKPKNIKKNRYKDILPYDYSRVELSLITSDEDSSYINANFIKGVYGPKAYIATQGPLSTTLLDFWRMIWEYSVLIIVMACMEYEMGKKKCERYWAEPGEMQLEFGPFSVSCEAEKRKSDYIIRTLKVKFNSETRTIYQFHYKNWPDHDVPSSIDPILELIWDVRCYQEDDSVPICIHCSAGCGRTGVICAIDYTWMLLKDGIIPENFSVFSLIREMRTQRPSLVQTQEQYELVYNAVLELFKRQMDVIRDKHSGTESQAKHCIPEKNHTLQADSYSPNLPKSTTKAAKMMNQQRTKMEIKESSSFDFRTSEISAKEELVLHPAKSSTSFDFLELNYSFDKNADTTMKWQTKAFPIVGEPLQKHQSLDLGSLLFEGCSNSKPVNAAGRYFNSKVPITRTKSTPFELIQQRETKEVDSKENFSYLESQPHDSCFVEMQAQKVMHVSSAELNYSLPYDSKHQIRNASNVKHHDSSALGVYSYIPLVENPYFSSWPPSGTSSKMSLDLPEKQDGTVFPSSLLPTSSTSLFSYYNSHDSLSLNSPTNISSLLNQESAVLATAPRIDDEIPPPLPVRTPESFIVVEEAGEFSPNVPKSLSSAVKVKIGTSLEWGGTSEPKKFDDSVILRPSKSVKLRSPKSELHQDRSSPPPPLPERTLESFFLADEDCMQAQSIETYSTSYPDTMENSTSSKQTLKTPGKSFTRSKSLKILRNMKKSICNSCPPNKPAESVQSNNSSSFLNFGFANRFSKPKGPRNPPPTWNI

[11] = target: T2, Tyrosine-protein phosphatase non-receptor type 22; type: functional; remark: listed apart in the source
[12] = target: T3, Tyrosine-protein phosphatase non-receptor type 7 (Homo sapiens, UniProt P35236); type: functional
T3 sequence (P35236 whole entry): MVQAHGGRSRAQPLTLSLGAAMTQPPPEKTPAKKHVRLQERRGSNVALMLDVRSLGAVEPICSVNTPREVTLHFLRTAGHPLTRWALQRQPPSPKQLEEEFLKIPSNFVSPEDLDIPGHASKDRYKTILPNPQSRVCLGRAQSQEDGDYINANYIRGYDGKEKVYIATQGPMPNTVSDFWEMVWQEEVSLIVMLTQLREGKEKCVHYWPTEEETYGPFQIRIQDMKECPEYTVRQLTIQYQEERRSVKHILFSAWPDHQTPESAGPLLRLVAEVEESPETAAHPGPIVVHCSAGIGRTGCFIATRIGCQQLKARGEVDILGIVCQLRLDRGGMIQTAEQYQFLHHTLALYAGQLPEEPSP

[13] = target: T4, Rac GTPase-activating protein 1 (Homo sapiens, UniProt Q9H0H5); assay: blockers of MgcRacGAP-driven Rac1 GTP hydrolysis – biochemical, ADP Hunter fluorescence, primary and confirmatory, confirmation (AID 624330); type: functional
T4 sequence (Q9H0H5 whole entry): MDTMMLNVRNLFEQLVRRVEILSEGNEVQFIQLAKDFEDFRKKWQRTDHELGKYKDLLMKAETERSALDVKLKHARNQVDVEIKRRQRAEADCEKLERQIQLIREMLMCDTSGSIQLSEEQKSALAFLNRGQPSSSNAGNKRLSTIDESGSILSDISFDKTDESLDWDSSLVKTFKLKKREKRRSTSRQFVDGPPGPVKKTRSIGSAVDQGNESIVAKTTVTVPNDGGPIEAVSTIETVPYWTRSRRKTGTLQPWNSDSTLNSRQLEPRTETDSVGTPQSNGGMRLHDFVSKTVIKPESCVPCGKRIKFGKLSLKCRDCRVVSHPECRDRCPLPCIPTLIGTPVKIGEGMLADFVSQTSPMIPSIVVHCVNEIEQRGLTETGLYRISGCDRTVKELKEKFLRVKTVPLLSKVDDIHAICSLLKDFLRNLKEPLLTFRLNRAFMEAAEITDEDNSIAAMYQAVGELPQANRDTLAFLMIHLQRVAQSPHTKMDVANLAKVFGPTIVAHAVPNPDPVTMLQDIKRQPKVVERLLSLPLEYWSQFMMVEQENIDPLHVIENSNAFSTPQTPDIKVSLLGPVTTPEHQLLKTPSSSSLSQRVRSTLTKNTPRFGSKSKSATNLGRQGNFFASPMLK

Trypsin = Trypsin (Sus scrofa, UniProt P00761); assay: trypsin protease activity blockade – biochemical, quenched peptide fluorescence, cherry-pick, selectivity assay for Rce1 protease inhibitor project, dose response (AID 488789)
CAAX prenyl protease 2 [14] = target: T5, CAAX prenyl protease 2 (Saccharomyces cerevisiae S288c, UniProt Q03530); type: biochemical
T5 sequence (Q03530 whole entry): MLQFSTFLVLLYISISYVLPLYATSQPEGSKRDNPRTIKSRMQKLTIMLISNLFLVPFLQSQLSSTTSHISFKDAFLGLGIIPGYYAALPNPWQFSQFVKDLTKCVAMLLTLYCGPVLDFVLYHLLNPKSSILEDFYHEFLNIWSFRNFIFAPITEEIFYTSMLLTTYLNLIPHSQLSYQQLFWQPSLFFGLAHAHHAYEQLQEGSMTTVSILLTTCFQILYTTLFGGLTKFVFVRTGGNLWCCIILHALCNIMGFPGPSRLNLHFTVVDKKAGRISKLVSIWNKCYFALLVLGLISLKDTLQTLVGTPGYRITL

CAAX prenyl protease 2 [15] = target: CAAX prenyl protease 2 (Homo sapiens, UniProt Q9Y256); assay: inhibition of Ras-converting CAAX protease Rce1 – biochemical, yeast membranes, quenched-peptide fluorescence, cherry-pick, dose response (AID 588849)
Mu-type opioid receptor = Mu-type opioid receptor (Homo sapiens, UniProt P35372); assay: (§1) Counterscreen for agonists of heterodimerization of the mu 1 (OPRM1) and delta 1 (OPRD1) opioid receptors: Luminescence-based cell-based high throughput dose response assay to identify agonists of OPRM1 homodimerization.; type: functional
[16] = target: T6, Short transient receptor potential channel 4 (Mus musculus, UniProt Q9QUQ5); assay: calcium entry via TRPC4 opening agents – cell-based, HEK293 TRPC4/mu-opioid, Fluo-4 calcium, dose response (AID 434937); type: functional
T6 sequence (Q9QUQ5 whole entry): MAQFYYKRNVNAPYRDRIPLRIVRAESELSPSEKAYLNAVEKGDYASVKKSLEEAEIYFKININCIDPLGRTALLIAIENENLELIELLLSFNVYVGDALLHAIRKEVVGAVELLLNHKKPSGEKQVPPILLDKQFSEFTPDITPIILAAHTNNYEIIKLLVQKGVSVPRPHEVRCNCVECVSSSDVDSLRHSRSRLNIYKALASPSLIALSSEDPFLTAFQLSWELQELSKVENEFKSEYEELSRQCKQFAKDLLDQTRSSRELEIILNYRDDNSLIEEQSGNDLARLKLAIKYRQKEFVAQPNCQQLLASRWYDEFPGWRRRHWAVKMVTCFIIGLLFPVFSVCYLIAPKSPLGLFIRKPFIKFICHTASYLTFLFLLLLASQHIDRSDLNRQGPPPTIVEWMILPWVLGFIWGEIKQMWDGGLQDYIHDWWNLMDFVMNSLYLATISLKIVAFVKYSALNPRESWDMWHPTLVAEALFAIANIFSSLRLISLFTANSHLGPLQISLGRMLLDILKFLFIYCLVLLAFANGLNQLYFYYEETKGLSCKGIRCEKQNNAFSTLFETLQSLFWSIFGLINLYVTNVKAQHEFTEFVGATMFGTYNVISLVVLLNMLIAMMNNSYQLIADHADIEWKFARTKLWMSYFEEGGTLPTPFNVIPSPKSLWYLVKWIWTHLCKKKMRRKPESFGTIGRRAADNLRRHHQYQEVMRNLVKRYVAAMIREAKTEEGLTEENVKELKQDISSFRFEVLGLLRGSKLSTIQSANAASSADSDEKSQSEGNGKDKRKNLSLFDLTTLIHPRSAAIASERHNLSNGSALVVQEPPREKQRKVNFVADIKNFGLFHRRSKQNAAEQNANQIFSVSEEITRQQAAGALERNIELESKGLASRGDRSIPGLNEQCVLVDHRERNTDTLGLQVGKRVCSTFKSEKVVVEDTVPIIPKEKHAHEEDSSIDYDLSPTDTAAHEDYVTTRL

[17] = target: 5-hydroxytryptamine receptor 5A (Homo sapiens, UniProt P47898); assay: Counterscreen for agonists of OPRM1-OPRD1 heterodimerization: luminescence-based cell-based high throughput dose response assay to identify agonists of 5-hydroxytryptamine (serotonin) 5A receptor (HTR5A). [Related pubchem assays (depositor defined):AID504326, AID504355, AID504692, AID504904, AID504905]; type: functional
[18] = target: Delta-type opioid receptor (Homo sapiens, UniProt P41143); assay: as §1, with “of OPRD1” for “of OPRM1”, “homodimerization. [Related pubchem assays (depositor defined):AID504326, AID504355, AID504692, AID504904, AID504905]” for “homodimerization.”; type: functional
Chain of Delta-type opioid receptor (P41143 whole entry): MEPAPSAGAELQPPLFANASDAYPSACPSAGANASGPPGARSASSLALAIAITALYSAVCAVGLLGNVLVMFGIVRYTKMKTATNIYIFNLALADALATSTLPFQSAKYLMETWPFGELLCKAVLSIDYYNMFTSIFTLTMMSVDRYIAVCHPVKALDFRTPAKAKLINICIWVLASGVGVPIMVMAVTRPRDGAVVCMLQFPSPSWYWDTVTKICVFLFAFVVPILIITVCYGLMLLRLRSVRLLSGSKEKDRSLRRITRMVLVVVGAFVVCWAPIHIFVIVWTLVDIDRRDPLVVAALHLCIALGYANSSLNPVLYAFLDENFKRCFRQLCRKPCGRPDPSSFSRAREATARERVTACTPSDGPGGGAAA

Chain of Trypsin (P00761 whole entry): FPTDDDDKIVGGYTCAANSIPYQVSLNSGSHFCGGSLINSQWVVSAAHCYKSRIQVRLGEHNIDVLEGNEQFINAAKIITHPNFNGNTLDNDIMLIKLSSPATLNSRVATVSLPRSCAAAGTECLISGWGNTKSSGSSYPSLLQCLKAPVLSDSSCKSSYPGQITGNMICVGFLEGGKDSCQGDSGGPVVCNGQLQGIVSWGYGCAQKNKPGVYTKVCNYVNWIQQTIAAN
Chain of CAAX prenyl protease 2 (Homo sapiens, UniProt Q9Y256) (Q9Y256 whole entry): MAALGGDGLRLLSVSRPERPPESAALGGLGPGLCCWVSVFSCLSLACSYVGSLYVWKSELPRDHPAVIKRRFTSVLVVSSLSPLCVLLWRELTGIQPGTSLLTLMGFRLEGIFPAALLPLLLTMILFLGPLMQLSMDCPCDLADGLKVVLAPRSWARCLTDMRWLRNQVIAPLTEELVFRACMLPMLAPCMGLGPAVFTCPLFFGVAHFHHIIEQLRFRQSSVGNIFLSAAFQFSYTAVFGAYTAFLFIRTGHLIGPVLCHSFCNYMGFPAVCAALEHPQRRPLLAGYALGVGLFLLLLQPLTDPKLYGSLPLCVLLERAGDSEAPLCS
Chain of 5-hydroxytryptamine receptor 5A (P47898 whole entry): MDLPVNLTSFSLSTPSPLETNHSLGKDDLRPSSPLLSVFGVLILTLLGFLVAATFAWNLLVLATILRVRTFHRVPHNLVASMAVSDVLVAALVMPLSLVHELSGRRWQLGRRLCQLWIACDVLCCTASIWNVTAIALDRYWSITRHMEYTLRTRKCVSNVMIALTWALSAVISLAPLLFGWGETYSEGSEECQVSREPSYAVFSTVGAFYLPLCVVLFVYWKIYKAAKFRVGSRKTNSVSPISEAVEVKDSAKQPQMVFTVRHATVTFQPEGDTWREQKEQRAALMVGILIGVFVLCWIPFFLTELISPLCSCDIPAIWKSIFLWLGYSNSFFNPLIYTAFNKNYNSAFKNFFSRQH
Chain of Mu-type opioid receptor (P35372 whole entry): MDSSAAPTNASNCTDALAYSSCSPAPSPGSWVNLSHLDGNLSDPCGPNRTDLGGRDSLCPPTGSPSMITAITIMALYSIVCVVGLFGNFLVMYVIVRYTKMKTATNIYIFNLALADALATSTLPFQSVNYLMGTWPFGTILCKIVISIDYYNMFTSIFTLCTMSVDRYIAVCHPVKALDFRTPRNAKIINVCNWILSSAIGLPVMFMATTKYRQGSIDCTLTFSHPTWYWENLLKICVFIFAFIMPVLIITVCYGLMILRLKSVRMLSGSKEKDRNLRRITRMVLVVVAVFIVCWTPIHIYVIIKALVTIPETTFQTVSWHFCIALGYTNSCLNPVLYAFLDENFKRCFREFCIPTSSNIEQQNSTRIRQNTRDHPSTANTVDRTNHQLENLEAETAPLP

SMILES: CC(C)(C)NC(=O)c1nn(Cc2ccccc2)c(=O)c2ccccc12
- AC50 (Escherichia coli [1]): 29.1 µM (active)
- AC50 (Escherichia coli [2]): 53.2 µM (active)

SMILES: CCC1CCCCN1C(=O)c1cc(COc2ccc3ncccc3c2)on1 (stereo unspecified)
- IC50 [3]: 0.339 µM (active)
- AC50 (INS1): 1.89 µM (active)
- AC50 [4]: 1.15 µM (active)
- IC50 [5]: > 80 µM (inactive)
- AC50 [6]: 2.06 µM (active)
- IC50 [7]: 0.444 µM (active)
- IC50 [8]: 4.58 µM (active)
- AC50 [9]: 0.46 µM (active)

- IC50 [10]: > 79.4 µM (inactive)
- IC50 [11]: > 79.4 µM (inactive)
- IC50 [12]: > 79.4 µM (inactive)
- IC50 [13]: 41.1 µM (active)
SMILES: Cc1[nH]c2ccccc2c1N=Nc1c(C)n(C)n(-c2ccccc2)c1=O

- AC50 (Trypsin): 14.1 µM (active)
- AC50 (CAAX prenyl protease 2 [14]): 17.5 µM (active)
- AC50 (CAAX prenyl protease 2 [15]): 17 µM (active)
SMILES: CCc1cc(=O)oc2c(C)c(OC(C)C(=O)NC3CC(C)(C)NC(C)(C)C3)ccc12 (stereo unspecified)

- EC50 (Mu-type opioid receptor): 4.15 µM (active)
- EC50 [16]: 0.188 µM (active)
- EC50 [17]: > 92.5 µM (inactive)
- EC50 [18]: 50 µM (inactive)
SMILES: Cc1ccc(C)c(NC(S)=NCC(c2ccccc2)N(C)C)c1 (stereo unspecified)
